From US10494355B2, “Oxadiazole amine derivative compounds as histone deacetylase 6 inhibitor, and the pharmaceutical composition comprising the same” (Chong Kun Dang Pharmaceutical Corp., priority 2015, dated 2019)

Experiments:
human recombinant HDAC6 = target: T1, human recombinant HDAC6 (Homo sapiens, UniProt Q9UBN7); assay: HDAC6 enzyme activity inhibition assay (HDAC Fluorimetric Drug Discovery Kit); type: biochemical; conditions: 30° C. 60 minutes
T1 construct: purchased Calbiochem 382180
T1 sequence (Q9UBN7 1-1215): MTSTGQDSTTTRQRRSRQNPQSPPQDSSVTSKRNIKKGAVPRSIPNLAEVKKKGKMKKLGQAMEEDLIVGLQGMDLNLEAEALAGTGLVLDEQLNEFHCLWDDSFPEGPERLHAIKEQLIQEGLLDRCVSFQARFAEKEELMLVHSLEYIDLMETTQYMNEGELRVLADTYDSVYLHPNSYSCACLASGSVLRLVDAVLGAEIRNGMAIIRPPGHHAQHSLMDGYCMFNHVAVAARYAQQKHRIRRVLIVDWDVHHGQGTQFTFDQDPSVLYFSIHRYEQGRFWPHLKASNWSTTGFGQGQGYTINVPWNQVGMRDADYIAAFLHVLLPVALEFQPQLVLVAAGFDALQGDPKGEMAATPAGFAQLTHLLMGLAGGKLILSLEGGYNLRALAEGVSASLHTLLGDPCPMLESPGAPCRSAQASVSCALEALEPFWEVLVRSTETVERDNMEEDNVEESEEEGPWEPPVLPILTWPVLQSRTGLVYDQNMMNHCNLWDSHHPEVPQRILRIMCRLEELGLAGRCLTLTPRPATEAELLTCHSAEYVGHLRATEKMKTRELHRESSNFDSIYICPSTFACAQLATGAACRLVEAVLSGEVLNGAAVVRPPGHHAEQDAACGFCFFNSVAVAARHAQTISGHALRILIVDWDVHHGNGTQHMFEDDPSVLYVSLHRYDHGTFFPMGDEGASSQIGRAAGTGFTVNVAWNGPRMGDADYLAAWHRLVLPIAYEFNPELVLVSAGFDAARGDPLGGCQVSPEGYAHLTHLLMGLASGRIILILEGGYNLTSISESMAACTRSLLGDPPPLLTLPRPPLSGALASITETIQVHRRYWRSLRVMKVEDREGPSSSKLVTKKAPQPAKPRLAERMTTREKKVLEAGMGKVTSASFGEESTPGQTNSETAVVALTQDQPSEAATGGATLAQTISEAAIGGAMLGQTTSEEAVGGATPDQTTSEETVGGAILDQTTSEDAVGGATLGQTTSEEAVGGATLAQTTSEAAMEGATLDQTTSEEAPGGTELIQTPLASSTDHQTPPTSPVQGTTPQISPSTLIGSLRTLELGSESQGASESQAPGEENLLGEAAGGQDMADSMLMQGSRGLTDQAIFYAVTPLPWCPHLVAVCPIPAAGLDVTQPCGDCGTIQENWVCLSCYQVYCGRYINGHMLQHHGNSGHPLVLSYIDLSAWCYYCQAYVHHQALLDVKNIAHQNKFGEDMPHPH
Method: (§1) In order to examine the HDAC6 selectivity of the compounds of formula I of the present invention by HDAC1 and HDAC6 enzymatic activity inhibition assays, an experiment was performed using a conventional substance as a control.
(§2) HDAC enzyme activity was measured using a HDAC Fluorimetric Drug Discovery Kit (BML-AK511, 516, Enzo Life Science). For the HDAC1 enzyme activity test, human recombinant HDAC1 (BML-SE456) was used as an enzyme source, and Fluor de Lys®-“SIRT1 (BNL-KI177) was used as a substrate. A 5-fold dilution of the compound was seeded into a 96-well plate, and then 0.3 μg of the enzyme and 10 μM of the substrate were added to each well of the plate and allowed to react at 30° C. for 60 minutes. Then, Fluor de Lys®-Developer II (BML-KI176) was added thereto and allowed to react for 30 minutes, after which the fluorescence value (Ex 360, Em 460) was measured using a multi-plate reader (Flexstation 3, Molecular Device). The HDAC6 enzyme was tested using human recombinant HDAC6 (382180) (Calbiochem) according to the same protocol as the HDAC1 enzyme activity test method. Based on the resulting values, each IC50 value was calculated using GraphPad Prism4.0 program.

human recombinant HDAC1 = target: T2, human recombinant HDAC1 (Homo sapiens, UniProt Q13547); assay: HDAC1 enzyme activity inhibition assay (HDAC Fluorimetric Drug Discovery Kit); type: biochemical; conditions: human recombinant HDAC1, 10 μM substrate, 30° C. 60 minutes
T2 construct: purchased Enzo Life Science BML-SE456
T2 sequence (Q13547 whole entry): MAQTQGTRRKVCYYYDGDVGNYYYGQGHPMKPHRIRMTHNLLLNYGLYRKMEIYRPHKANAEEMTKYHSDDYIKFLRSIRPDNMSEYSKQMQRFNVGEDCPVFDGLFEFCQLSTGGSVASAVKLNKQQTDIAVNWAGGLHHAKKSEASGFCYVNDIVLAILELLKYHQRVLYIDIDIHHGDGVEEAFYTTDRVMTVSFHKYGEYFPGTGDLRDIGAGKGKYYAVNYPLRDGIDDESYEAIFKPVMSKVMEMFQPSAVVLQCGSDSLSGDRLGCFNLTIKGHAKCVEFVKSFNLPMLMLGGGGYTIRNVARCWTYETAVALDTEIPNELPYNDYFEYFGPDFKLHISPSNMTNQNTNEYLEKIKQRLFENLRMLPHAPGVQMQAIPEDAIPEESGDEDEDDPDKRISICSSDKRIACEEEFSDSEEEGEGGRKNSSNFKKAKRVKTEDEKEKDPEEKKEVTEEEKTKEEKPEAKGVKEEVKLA
Method: as §1, §2

Row | SMILES | IC50 (human recombinant HDAC6) [nM] | IC50 (human recombinant HDAC1) [nM]
1 | FC(F)c1nnc(-c2cnc(NC3(c4ccc5c(c4)OCO5)CCC3)nc2)o1 [Compound 1820, N-(1-(benzo[d][1,3]dioxol-5-yl)cyclobutyl)-5-(5-(difluoromethyl)-1,3,4-oxadiazol-2-yl)pyrimidin-2-amine] | 83 | > 10000
2 | Fc1ccc(F)c(C2(Nc3ncc(-c4nnc(C(F)F)o4)cn3)CCC2)c1 [Compound 1821, 5-(5-(difluoromethyl)-1,3,4-oxadiazol-2-yl)-N-(1-(2,5-difluorophenyl)cyclobutyl)pyrimidin-2-amine] | 32 | > 10000
3 | FC(F)c1nnc(-c2cnc(NC3(c4ccc(OC(F)(F)F)cc4)CCC3)nc2)o1 [Compound 1822, 5-(5-(difluoromethyl)-1,3,4-oxadiazol-2-yl)-N-(1-(4-(trifluoromethoxy)phenyl)cyclobutyl)pyrimidin-2-amine] | 282 | > 10000
4 | Fc1cc(F)c(C2(Nc3ncc(-c4nnc(C(F)F)o4)cn3)CCC2)cc1F [Compound 1826, 5-(5-(difluoromethyl)-1,3,4-oxadiazol-2-yl)-N-(1-(2,4,5-trifluorophenyl)cyclobutyl)pyrimidin-2-amine] | 120 | > 10000
5 | Fc1cccc(C2(Nc3ncc(-c4nnc(C(F)F)o4)cn3)CCC2)c1F [Compound 1827, 5-(5-(difluoromethyl)-1,3,4-oxadiazol-2-yl)-N-(1-(2,3-difluorophenyl)cyclobutyl)pyrimidin-2-amine] | 43 | > 10000
6 | Fc1cccc(F)c1C1(Nc2ncc(-c3nnc(C(F)F)o3)cn2)CCC1 [Compound 1828, 5-(5-(difluoromethyl)-1,3,4-oxadiazol-2-yl)-N-(1-(2,6-difluorophenyl)cyclobutyl)pyrimidin-2-amine] | 39 | > 10000
7 | FC(F)c1nnc(-c2cnc(NC3(c4cccc(Cl)c4Cl)CCC3)nc2)o1 [Compound 1832, N-(1-(2,3-dichlorophenyl)cyclobutyl)-5-(5-(difluoromethyl)-1,3,4-oxadiazol-2-yl)pyrimidin-2-amine] | 100 | > 10000
8 | FC(F)(F)c1nnc(-c2cnc(NC3(c4cccc(Cl)c4Cl)CCC3)nc2)o1 [Compound 1833, N-(1-(2,3-dichlorophenyl)cyclobutyl)-5-(5-(trifluoromethyl)-1,3,4-oxadiazol-2-yl)pyrimidin-2-amine] | 750 | > 10000
9 | FC(F)c1nnc(-c2cnc(NC3(c4ccc(Cl)c(Cl)c4)CCC3)nc2)o1 [Compound 1834, N-(1-(3,4-dichlorophenyl)cyclobutyl)-5-(5-(difluoromethyl)-1,3,4-oxadiazol-2-yl)pyrimidin-2-amine] | 120 | > 10000
10 | FC(F)(F)c1nnc(-c2cnc(NC3(c4ccc(Cl)c(Cl)c4)CCC3)nc2)o1 [Compound 1835, N-(1-(3,4-dichlorophenyl)cyclobutyl)-5-(5-(trifluoromethyl)-1,3,4-oxadiazol-2-yl)pyrimidin-2-amine] | 1960 | > 10000
11 | FC(F)c1nnc(-c2cnc(NC3(c4ccc(Cl)cc4Cl)CCC3)nc2)o1 [Compound 1836, N-(1-(2,4-dichlorophenyl)cyclobutyl)-5-(5-(difluoromethyl)-1,3,4-oxadiazol-2-yl)pyrimidin-2-amine] | 200 | > 10000
12 | FC(F)(F)c1nnc(-c2cnc(NC3(c4ccc(Cl)cc4Cl)CCC3)nc2)o1 [Compound 1837, N-(1-(2,4-dichlorophenyl)cyclobutyl)-5-(5-(trifluoromethyl)-1,3,4-oxadiazol-2-yl)pyrimidin-2-amine] | 2520 | > 10000
13 | FC(F)c1nnc(-c2cnc(NC3(c4c(Cl)cccc4Cl)CCC3)nc2)o1 [Compound 1838, N-(1-(2,6-dichlorophenyl)cyclobutyl)-5-(5-(difluoromethyl)-1,3,4-oxadiazol-2-yl)pyrimidin-2-amine] | 110 | > 10000
14 | FC(F)c1nnc(-c2cnc(NC3(c4cccnc4)CCC3)nc2)o1 [Compound 1913, 5-(5-(difluoromethyl)-1,3,4-oxadiazol-2-yl)-N-(1-(pyridin-3-yl)cyclobutyl)pyrimidin-2-amine] | 40 | > 10000
15 | Fc1ccc(C2(Nc3ncc(-c4nnc(C(F)F)o4)cn3)CCC2)c(Cl)c1 [Compound 1959, N-(1-(2-chloro-4-fluorophenyl)cyclobutyl)-5-(5-(difluoromethyl)-1,3,4-oxadiazol-2-yl)pyrimidin-2-amine] | 163 | > 10000
16 | Fc1ccc(C2(Nc3ncc(-c4nnc(C(F)(F)F)o4)cn3)CCC2)c(Cl)c1 [Compound 1960, N-(1-(2-chloro-4-fluorophenyl)cyclobutyl)-5-(5-(trifluoromethyl)-1,3,4-oxadiazol-2-yl)pyrimidin-2-amine] | 1230 | > 10000
17 | Fc1ccc(Cl)c(C2(Nc3ncc(-c4nnc(C(F)F)o4)cn3)CCC2)c1 [Compound 1961, N-(1-(2-chloro-5-fluorophenyl)cyclobutyl)-5-(5-(difluoromethyl)-1,3,4-oxadiazol-2-yl)pyrimidin-2-amine] | 115 | > 10000
18 | Fc1ccc(Cl)c(C2(Nc3ncc(-c4nnc(C(F)(F)F)o4)cn3)CCC2)c1 [Compound 1962, N-(1-(2-chloro-5-fluorophenyl)cyclobutyl)-5-(5-(trifluoromethyl)-1,3,4-oxadiazol-2-yl)pyrimidin-2-amine] | 888 | > 10000
19 | Fc1ccc(Cl)cc1C1(Nc2ncc(-c3nnc(C(F)F)o3)cn2)CCC1 [Compound 1963, N-(1-(5-chloro-2-fluorophenyl)cyclobutyl)-5-(5-(difluoromethyl)-1,3,4-oxadiazol-2-yl)pyrimidin-2-amine] | 89 | > 10000
20 | Fc1ccc(Cl)cc1C1(Nc2ncc(-c3nnc(C(F)(F)F)o3)cn2)CCC1 [Compound 1964, N-(1-(5-chloro-2-fluorophenyl)cyclobutyl)-5-(5-(trifluoromethyl)-1,3,4-oxadiazol-2-yl)pyrimidin-2-amine] | 1850 | > 10000
21 | Fc1c(Cl)cccc1C1(Nc2ncc(-c3nnc(C(F)F)o3)cn2)CCC1 [Compound 1965, N-(1-(3-chloro-2-fluorophenyl)cyclobutyl)-5-(5-(difluoromethyl)-1,3,4-oxadiazol-2-yl)pyrimidin-2-amine] | 70 | > 10000
22 | Fc1c(Cl)cccc1C1(Nc2ncc(-c3nnc(C(F)(F)F)o3)cn2)CCC1 [Compound 1966, N-(1-(3-chloro-2-fluorophenyl)cyclobutyl)-5-(5-(trifluoromethyl)-1,3,4-oxadiazol-2-yl)pyrimidin-2-amine] | 1470 | > 10000
23 | FC(F)c1nnc(-c2cnc(NC3(c4ccc(C5CCN(C6COC6)CC5)cc4)CCC3)nc2)o1 [Compound 2023, 5-(5-(difluoromethyl)-1,3,4-oxadiazol-2-yl)-N-(1-(4-(1-(oxetan-3-yl)piperidin-4-yl)phenyl)cyclobutyl)pyrimidin-2-amine] | 387 | > 10000
24 | Cc1ccc(S(=O)(=O)CC2(Nc3ncc(-c4nnc(C(F)F)o4)cn3)CCC2)cc1 [Compound 2026, 5-(5-(difluoromethyl)-1,3,4-oxadiazol-2-yl)-N-(1-(tosylmethyl)cyclobutyl)pyrimidin-2-amine] | > 10000 | > 10000
